Measurements as given in PubChem BioAssay AID2060602 (Molecular Pharmacology Branch, DTP, NCI, 2025).
Where “and” joins values, the source holds several entries; their conditions need not be identical. Identical values can stand only once.

System: 648629-189-R-J1-PDC complex spheroids viability
Assay: Anticancer human tumor 648629-189-R-J1-PDC patient-derived bladder carcinoma cell line growth inhibition [CLK]
Settings: for viability, T/C: stronger effect = lower value
Summary of the method: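 Patient-derived tumor cells grown as complex spheroids with HUVEC endothelial cells and mesenchymal stem cells, treated with drug combinations. Concentrations descend in half-log steps from near clinical Cmax, or from 10 microM if Cmax unknown.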

[1] = curve of first compound, second compound 0.0316 µM
[2] = curve of first compound, second compound 0.1 µM
[3] = curve of first compound, second compound 0.316 µM
[4] = curve of first compound, second compound 1 µM
[5] = curve of first compound, second compound 3.16 µM
[6] = curve of first compound, second compound 10 µM
[7] = second compound 0.0316 µM, first compound 0.0316 µM
[8] = second compound 0.0316 µM, first compound 0.1 µM
[9] = second compound 0.0316 µM, first compound 0.316 µM
[10] = second compound 0.0316 µM, first compound 1 µM
[11] = second compound 0.0316 µM, first compound 3.16 µM
[12] = second compound 0.0316 µM, first compound 10 µM
[13] = second compound 0.1 µM, first compound 0.0316 µM
[14] = second compound 0.1 µM, first compound 0.1 µM
[15] = second compound 0.1 µM, first compound 0.316 µM
[16] = second compound 0.1 µM, first compound 1 µM
[17] = second compound 0.1 µM, first compound 3.16 µM
[18] = second compound 0.1 µM, first compound 10 µM
[19] = second compound 0.316 µM, first compound 0.0316 µM
[20] = second compound 0.316 µM, first compound 0.1 µM
[21] = second compound 0.316 µM, first compound 0.316 µM
[22] = second compound 0.316 µM, first compound 1 µM
[23] = second compound 0.316 µM, first compound 3.16 µM
[24] = second compound 0.316 µM, first compound 10 µM
[25] = second compound 1 µM, first compound 0.0316 µM
[26] = second compound 1 µM, first compound 0.1 µM
[27] = second compound 1 µM, first compound 0.316 µM
[28] = second compound 1 µM, first compound 1 µM
[29] = second compound 1 µM, first compound 3.16 µM
[30] = second compound 1 µM, first compound 10 µM
[31] = second compound 3.16 µM, first compound 0.0316 µM
[32] = second compound 3.16 µM, first compound 0.1 µM
[33] = second compound 3.16 µM, first compound 0.316 µM
[34] = second compound 3.16 µM, first compound 1 µM
[35] = second compound 3.16 µM, first compound 3.16 µM
[36] = second compound 3.16 µM, first compound 10 µM
[37] = second compound 10 µM, first compound 0.0316 µM
[38] = second compound 10 µM, first compound 0.1 µM
[39] = second compound 10 µM, first compound 0.316 µM
[40] = second compound 10 µM, first compound 1 µM
[41] = second compound 10 µM, first compound 3.16 µM
[42] = second compound 10 µM, first compound 10 µM
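Wherever viability, T/C is given: drug exposure lasted seven days before viability readout; 100% = DMSO vehicle control wells.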

CC(=O)O[C@H]1C(=O)[C@@]2(C)[C@H]([C@H](OC(=O)c3ccccc3)[C@]3(O)C[C@H](OC(=O)[C@H](O)[C@@H](NC(=O)c4ccccc4)c4ccccc4)C(C)=C1C3(C)C)[C@]1(OC(C)=O)CO[C@@H]1C[C@@H]2O + CN1CCN(c2cc(C(=O)Nc3cc4cc(-c5cnn(C)c5)ccc4cn3)ccn2)CC1
IC50 [1]: < 31.6 nM | IC50 [2]: < 31.6 nM | IC50 [3]: < 31.6 nM | IC50 [4]: < 31.6 nM | IC50 [5]: < 31.6 nM | IC50 [6]: < 31.6 nM | viability, T/C [7]: 10.9% | viability, T/C [8]: 8.37% | viability, T/C [9]: 9.02% | viability, T/C [10]: 10.6% | viability, T/C [11]: 7.39% | viability, T/C [12]: 9.59% | viability, T/C [13]: 7.2% | viability, T/C [14]: 8.42% | viability, T/C [15]: 6.79% | viability, T/C [16]: 7.78% | viability, T/C [17]: 8.57% | viability, T/C [18]: 9.47% | viability, T/C [19]: 9.01% | viability, T/C [20]: 9.65% | viability, T/C [21]: 10.1% | viability, T/C [22]: 9.51% | viability, T/C [23]: 8.91% | viability, T/C [24]: 11.2% | viability, T/C [25]: 0.14% | viability, T/C [26]: 0.13% | viability, T/C [27]: 0.87% | viability, T/C [28]: 0.11% | viability, T/C [29]: 0.47% | viability, T/C [30]: 0.64% | viability, T/C [31]: 0.07% | viability, T/C [32]: 1.18% | viability, T/C [33]: 0.13% | viability, T/C [34]: 0.09% | viability, T/C [35]: 0.11% | viability, T/C [36]: 0.1% | viability, T/C [37]: 0.1% | viability, T/C [38]: 0.13% | viability, T/C [39]: 0.2% | viability, T/C [40]: 0.17% | viability, T/C [41]: 1.53% | viability, T/C [42]: 0.16%

CC1(C)CCC(CN2CCN(c3ccc(C(=O)NS(=O)(=O)c4ccc(NCC5CCOCC5)c([N+](=O)[O-])c4)c(Oc4cnc5[nH]ccc5c4)c3)CC2)=C(c2ccc(Cl)cc2)C1 + CNC(=O)c1ccc(Nc2nc(OC3CCCC3)c3c(-c4ccc5nc(C)oc5c4)c[nH]c3n2)c(OC)c1
IC50 [1]: > 10000 nM | IC50 [2]: > 10000 nM | IC50 [3]: < 31.6 nM | IC50 [4]: < 31.6 nM | IC50 [5]: < 31.6 nM | IC50 [6]: < 31.6 nM | viability, T/C [7]: 100% | viability, T/C [8]: 114% | viability, T/C [9]: 108% | viability, T/C [10]: 106% | viability, T/C [11]: 85.3% | viability, T/C [12]: 103% | viability, T/C [13]: 86.5% | viability, T/C [14]: 94% | viability, T/C [15]: 93.4% | viability, T/C [16]: 79.2% | viability, T/C [17]: 71% | viability, T/C [18]: 100% | viability, T/C [19]: 26.3% | viability, T/C [20]: 30.1% | viability, T/C [21]: 23.4% | viability, T/C [22]: 25.6% | viability, T/C [23]: 29.4% | viability, T/C [24]: 19.9% | viability, T/C [25]: 20.7% | viability, T/C [26]: 24.1% | viability, T/C [27]: 20.2% | viability, T/C [28]: 23.4% | viability, T/C [29]: 26.5% | viability, T/C [30]: 21.3% | viability, T/C [31]: 23.1% | viability, T/C [32]: 23.3% | viability, T/C [33]: 23.9% | viability, T/C [34]: 20.2% | viability, T/C [35]: 21.6% | viability, T/C [36]: 17.3% | viability, T/C [37]: 20.9% | viability, T/C [38]: 20.7% | viability, T/C [39]: 19.9% | viability, T/C [40]: 22% | viability, T/C [41]: 23.6% | viability, T/C [42]: 20.4%

CC1(C)CCC(CN2CCN(c3ccc(C(=O)NS(=O)(=O)c4ccc(NCC5CCOCC5)c([N+](=O)[O-])c4)c(Oc4cnc5[nH]ccc5c4)c3)CC2)=C(c2ccc(Cl)cc2)C1
viability, T/C (compound 0.0316 µM): 102% and 96.3% | viability, T/C (compound 0.1 µM): 94.1% and 86% | viability, T/C (compound 0.316 µM): 99.4% and 93.7% | viability, T/C (compound 1 µM): 88.7% and 93.4% | viability, T/C (compound 3.16 µM): 84.9% and 93.4% | viability, T/C (compound 10 µM): 62% and 110% | IC50 (curve of compound): > 10000 nM

C=CC(=O)N1CCN(c2nc(=O)n(-c3c(C)ccnc3C(C)C)c3nc(-c4c(O)cccc4F)c(F)cc23)C(C)C1 (stereo not drawn) + CN1CCN(c2cc(C(=O)Nc3cc4cc(-c5cnn(C)c5)ccc4cn3)ccn2)CC1
IC50 [1]: > 10000 nM | IC50 [2]: > 10000 nM | IC50 [3]: 1030 nM | IC50 [4]: < 31.6 nM | IC50 [5]: < 31.6 nM | IC50 [6]: < 31.6 nM | viability, T/C [7]: 109% | viability, T/C [8]: 113% | viability, T/C [9]: 104% | viability, T/C [10]: 115% | viability, T/C [11]: 108% | viability, T/C [12]: 89% | viability, T/C [13]: 89.6% | viability, T/C [14]: 99.5% | viability, T/C [15]: 99.4% | viability, T/C [16]: 114% | viability, T/C [17]: 98.9% | viability, T/C [18]: 102% | viability, T/C [19]: 47.3% | viability, T/C [20]: 55.5% | viability, T/C [21]: 50.5% | viability, T/C [22]: 50.4% | viability, T/C [23]: 38% | viability, T/C [24]: 20.2% | viability, T/C [25]: 0.58% | viability, T/C [26]: 0.57% | viability, T/C [27]: 0.3% | viability, T/C [28]: 0.5% | viability, T/C [29]: 0.34% | viability, T/C [30]: 0.13% | viability, T/C [31]: 0.13% | viability, T/C [32]: 0.17% | viability, T/C [33]: 0.14% | viability, T/C [34]: 0.13% | viability, T/C [35]: 0.11% | viability, T/C [36]: 0.11% | viability, T/C [37]: 0.15% | viability, T/C [38]: 0.19% | viability, T/C [39]: 0.16% | viability, T/C [40]: 0.18% | viability, T/C [41]: 0.22% | viability, T/C [42]: 0.15%
